Measurements published in patent US20170202838A1, “IMMUNOMODULATOR” (TAIHO PHARMACEUTICAL CO., LTD., priority 2015, published 2017).

Key:
Format in all cases: cell-based
[1] = test system: human peripheral blood mononuclear cells; test: Induction of cytokine production in human peripheral blood mononuclear cells, Bio-Plex Pro cytokine assay (Example 7); settings: 2 days culture, no stimulant (FIG. 9)
Method: Human peripheral blood mononuclear cells were introduced into a human complete medium (i.e., RPMI-1640 supplemented with 10% heat-inactivated FBS, 100 U/ml penicillin, and 100 μg/ml streptomycin) to prepare a cell suspension (1×10^5 cells/ml). Compound (I), the EGFR tyrosine kinase inhibitor (i.e., AZD9291 or Erlotinib), or a cytokine-inducing positive control (i.e., Imiquimod) was added to the cell suspension. A control group to which the EGFR tyrosine kinase inhibitor and others were not added was also prepared (i.e., the non-treatment group). The culture solution was cultured in an incubator at 37° C. in the presence of 5% CO2 for 2 days. The culture supernatant was recovered, and various types of cytokines were inspected with the use of the Bio-Plex Pro human cytokine assay kit.

[2] = test system: human peripheral blood mononuclear cells; test: Induction of IL-2 production of PHA-M-stimulated human peripheral blood mononuclear cells (Example 2); settings: PHA-M 5 μg/ml, 3 days, ELISA (FIG. 3)
Method: Human peripheral blood mononuclear cells were introduced into a human complete medium (i.e., RPMI-1640 supplemented with 10% heat-inactivated FBS, 100 U/ml penicillin, and 100 μg/ml streptomycin) to prepare a cell suspension (1×10^6 cells/ml). Phytohemagglutinin M (PHA-M) was added thereto to the final concentration of 5 μg/ml, and Compound (I) or an EGFR tyrosine kinase inhibitor (AZD9291) was further added thereto to each final concentration. This culture solution was seeded in a 96-well plate at 200 μl/well and then cultured in an incubator at 37° C. in the presence of 5% CO2 for 3 days. The culture supernatant was recovered, and the concentration of IL-2 therein was measured via ELISA using the anti-hIL-2 antibody.

[3] = test system: mouse spleen cells; test: Excitation of T cell growth, CFSE flow cytometry of CD4- and CD8-positive spleen cells (Example 4); settings: 0.1 μM, 3 days culture of stimulated spleen cells
Method: The mouse spleen was extracted, grinded with glass slides with frosted areas, and then subjected to hemolysis, so as to obtain spleen cells. The spleen cells were suspended in 5 ml of a staining buffer (0.5% BSA, 2 mM EDTA, PBS(-)), and the cells were stained with 5 μM CFSE (5-carboxyfluorescein succinimidyl ester). Thereafter, the stained cells were washed with an ice-cooled complete medium (RPMI-1640). The CFSE-stained spleen cells were introduced into a complete medium (i.e., RPMI-1640 supplemented with 10% heat-inactivated FBS, 100 U/ml penicillin, 100 μg/ml streptomycin, and 55 μM 2-mercaptoethanol) to prepare a cell suspension (1×10^6 cells/ml), the anti-CD3 antibody and the anti-CD28 antibody were added at 1 μg/ml and 1 μg/ml, respectively, and Compound (I) adjusted to various concentrations or the EGFR tyrosine kinase inhibitor (i.e., AZD09291, Erlotinib, Co1686 (Rociletinib), Ibrutinib, Sunitinib, or Dasatinib) was added at 0.1 μM. […] These culture solutions were seeded in a 96-well plate at 200 μl/well and then cultured in an incubator at 37° C. in the presence of 5% CO2 for 3 days. The cells were recovered and stained with the anti-CD4 antibody and the anti-CD8 antibody. The amounts of CFSE in CD4- and CD8-positive cells were analyzed via flow cytometry.
Once CFSE is incorporated into a cell, the amount thereof is kept constant in the cell. Since the amount of CFSE per cell decreases by half upon cell division, according to flow cytometric analysis, the intensity of CFSE staining is attenuated and is shifted toward left (i.e., lower level) in the chart, as cell division proceeds. […] In the case of the samples to which other types of EGFR tyrosine kinase inhibitors had been added, in contrast, no such activity for enhancing the cell growth was observed.

SMILES | cytokine concentrations relative to the non-treatment group [1] | concentration of IL-2 produced by human peripheral blood mononuclear cells in the culture supernatant [2] | cell death [3]
C#Cc1cccc(Nc2ncnc3cc(OCCOC)c(OCCOC)cc23)c1 [Erlotinib] | such induction was not observed | – | –
C=CC(=O)Nc1cc(Nc2nccc(-c3cn(C)c4ccccc34)n2)c(OC)cc1N(C)CCN(C)C [AZD9291, reference compound] | such induction was not observed | substantially no activity for inducing IL-2 production | –
Cc1nc(Nc2ncc(C(=O)Nc3c(C)cccc3Cl)s2)cc(N2CCN(CCO)CC2)n1 [Dasatinib, reference compound] | – | – | cell death was induced
